Test system: NMU-induced mammary tumors
Test: Prophylaxis of NMU-induced mammary tumors after intraductal injection
Type: in vivo, Sprague Dawley rats
Conditions: rat mammary glands, NMU 50 mg/kg i.v. after treatment, monitored 8 months
Experimental: The mammary glands (6 on each side) of six virgin 50 day old Sprague Dawley rats were injected with AdHS-tk on the left side and trypan blue on the right side or left untreated. One rat remained completely untreated with the virus or GCV and served as a positive control for NMU-induced tumorigenesis. On the day of surgery, rats were given an intramuscular injection of 5 μg estradiol valerate and were anesthetized with an isofluorane/O2 mixture. The nipples were cannulated with a 33 gauge needle. Twenty μl of AdHS-tk diluted in trypan blue carrier (1 mM MgCl2, 20 μg/ml polybrene in 10% glycerol, 0.4% trypan blue in saline) at a concentration of 5×10^7 particles/μl were injected into the duct. Carrier control mammary glands received 20 μl of trypan blue carrier alone. An animal was considered treated when at least three glands were successfully injected with trypan blue and another three glands were successfully injected with AdHS-tk. The remaining glands were left untreated. Twelve hrs later, the rats were injected with 125 mg/kg body weight GCV twice daily for three days. […] Five to seven days after GCV treatment, the rats were given an intravenous injection of NMU dissolved in 0.05% acetic acid (Ash Stevens, CO; 50 mg NMU/kg body weight) and were subsequently monitored for general health and the appearance of tumors at weekly intervals for 8 months.

`Nc1nc(O)c2ncn(COC(CO)CO)c2n1` [Ganciclovir, ganciclovir] was tested, and the “% of Glands with Tumor” value was 25.0% and the “No. of Tumors” value was 5.

From patent publication US7196070B2, “Prophylactic and therapeutic treatment of the ductal epithelium of a mammary gland for cancer” (priority 1995, dated 2007)
